Source: ChEMBL document CHEMBL1201862, “PubChem BioAssay data set” (2004)
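Dose response: 5 concentrations. Exposure: 48 h. Format: 96-well plates. Endpoint: linear interpolation; highest concentration if not reached. At the GI50, growth is halved.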 Activity calls are given as the source filed them. Rule as the data show it: active = GI50 up to about 1.1 µM and inactive = higher.

Experiments:
Experiment in all cases: DTP human tumour cell line panel, 48 h
[1] = tested on: Malme-3M
[2] = tested on: U-251
[3] = tested on: EKVX
[4] = tested on: KM12
[5] = tested on: CCRF-CEM
[6] = tested on: A549
[7] = tested on: SR
[8] = tested on: NCI-H460
[9] = tested on: BT-549
[10] = tested on: LOX IMVI
[11] = tested on: NCI/ADR-RES
[12] = tested on: DU-145
[13] = tested on: SF-295
[14] = tested on: MDA-N
[15] = tested on: RPMI-8226
[16] = tested on: HT-29
[17] = tested on: RXF 393
[18] = tested on: MDA-MB-435
[19] = tested on: OVCAR-4
[20] = tested on: SNB-75
[21] = tested on: NCI-H226
[22] = tested on: MOLT-4
[23] = tested on: SF-268
[24] = tested on: SNB-19
[25] = tested on: COLO 205
[26] = tested on: K562
[27] = tested on: UACC-62
[28] = tested on: SF-539
[29] = tested on: M14
[30] = tested on: OVCAR-8
[31] = tested on: HL-60
[32] = tested on: SK-MEL-2
[33] = tested on: ACHN
[34] = tested on: HCC 2998
[35] = tested on: MDA-MB-231
[36] = tested on: HCT-15
[37] = tested on: UO-31
[38] = tested on: IGROV-1
[39] = tested on: OVCAR-3
[40] = tested on: HOP-92
[41] = tested on: PC-3
[42] = tested on: SK-MEL-5
[43] = tested on: SW-620
[44] = tested on: CAKI-1
[45] = tested on: 786-0
[46] = tested on: A498
[47] = tested on: SK-MEL-28
[48] = tested on: SK-OV-3
[49] = tested on: HCT-116
[50] = tested on: NCI-H23
[51] = tested on: TK-10
[52] = tested on: T47D
[53] = tested on: Hs-578T
[54] = tested on: MCF7
[55] = tested on: OVCAR-5
[56] = tested on: UACC-257
[57] = tested on: NCI-H522
[58] = tested on: SN12C
[59] = tested on: HOP-62

Measured: GI50

COc1cc2c(cc1OC)C1=CCC(c3ccccc3)[N+]1(C)CC2 (stereo not given)
> 100 µM: [36]
inactive: [1] 56.9 µM | [2] > 100 µM | [3] > 100 µM | [4] > 100 µM | [5] > 100 µM | [6] > 100 µM | [7] > 100 µM | [8] > 100 µM | [9] > 100 µM | [10] > 100 µM | [11] > 100 µM | [12] > 100 µM | [13] > 100 µM | [14] > 100 µM | [15] > 100 µM | [16] > 100 µM | [17] > 100 µM | [18] > 100 µM | [19] > 100 µM | [20] > 100 µM | [21] > 100 µM | [22] > 100 µM | [23] > 100 µM | [24] > 100 µM | [25] > 100 µM | [26] > 100 µM | [27] > 100 µM | [28] > 100 µM | [29] > 100 µM | [30] > 100 µM | [31] > 100 µM | [32] > 100 µM | [33] > 100 µM | [34] > 100 µM | [35] > 100 µM | [37] > 100 µM | [38] > 100 µM | [39] > 100 µM | [40] > 100 µM | [41] > 100 µM | [42] 78.5 µM | [43] > 100 µM | [44] > 100 µM | [45] > 100 µM | [46] > 100 µM | [47] > 100 µM | [48] > 100 µM | [49] > 100 µM | [50] > 100 µM | [51] > 100 µM | [52] > 100 µM | [53] > 100 µM | [54] > 100 µM | [55] > 100 µM | [56] 33.5 µM

C[N+]12CCCCC1C(COc1cccc3cccnc13)CCC2 (stereo not given)
> 100 µM: [36]
inactive: [1] > 100 µM | [2] > 100 µM | [3] > 100 µM | [4] > 100 µM | [5] > 100 µM | [6] > 100 µM | [7] > 100 µM | [8] 58.6 µM | [9] 42 µM | [10] 93.5 µM | [11] > 100 µM | [12] > 100 µM | [13] > 100 µM | [14] 93.5 µM | [15] 34.4 µM | [16] 53.1 µM | [17] > 100 µM | [18] > 100 µM | [19] > 100 µM | [20] > 100 µM | [57] > 100 µM | [21] 59.6 µM | [22] > 100 µM | [23] > 100 µM | [24] > 100 µM | [25] > 100 µM | [26] 77.4 µM | [27] > 100 µM | [28] > 100 µM | [29] > 100 µM | [30] > 100 µM | [31] > 100 µM | [58] > 100 µM | [32] > 100 µM | [33] > 100 µM | [34] > 100 µM | [35] 91.2 µM | [37] > 100 µM | [38] 75.5 µM | [59] 72.9 µM | [39] 26.6 µM | [40] 15.9 µM | [41] > 100 µM | [42] 75 µM | [43] > 100 µM | [44] > 100 µM | [45] > 100 µM | [46] > 100 µM | [47] > 100 µM | [48] > 100 µM | [49] 61.2 µM | [50] > 100 µM | [51] > 100 µM | [52] > 100 µM | [53] > 100 µM | [54] > 100 µM | [55] > 100 µM | [56] > 100 µM
